In patent US20040167188A1, “Protein-tyrosine phosphatase inhibitors and uses thereof” (priority 2003, published 2004):
Read-outs that look alike come from different tables or passages of the source.

Key:
SHP-2 (full length) = target: T1, SHP-2 (full length) (Homo sapiens, UniProt Q06124); assay: Inhibition constant determination, selectivity panel: SHP-2 (pNPP hydrolysis); assay type: biochemical; details: competitive Ki; pNPP substrate; read-out: Phosphatase Inhibition Constants (Kic) SHP-2
T1 sequence (Q06124 1-593): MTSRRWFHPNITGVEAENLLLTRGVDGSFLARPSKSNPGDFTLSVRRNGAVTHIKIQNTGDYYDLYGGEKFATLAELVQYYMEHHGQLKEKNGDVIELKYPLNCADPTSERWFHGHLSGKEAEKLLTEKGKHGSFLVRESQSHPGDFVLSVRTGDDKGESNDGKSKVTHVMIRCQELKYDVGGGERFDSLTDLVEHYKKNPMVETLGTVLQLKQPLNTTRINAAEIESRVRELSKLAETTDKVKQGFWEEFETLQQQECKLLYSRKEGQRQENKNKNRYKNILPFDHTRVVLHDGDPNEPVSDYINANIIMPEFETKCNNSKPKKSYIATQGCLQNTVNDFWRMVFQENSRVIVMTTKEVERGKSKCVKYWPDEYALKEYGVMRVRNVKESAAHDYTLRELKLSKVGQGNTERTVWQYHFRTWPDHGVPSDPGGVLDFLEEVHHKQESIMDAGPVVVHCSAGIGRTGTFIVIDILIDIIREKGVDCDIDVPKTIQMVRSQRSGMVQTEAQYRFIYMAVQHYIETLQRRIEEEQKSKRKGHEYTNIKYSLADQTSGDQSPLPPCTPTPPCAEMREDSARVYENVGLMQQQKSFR
Experimental: Cells were lysed with a French press following by centrifugation to remove debris. Proteins were precipitated with 50% saturated ammonium sulfate, recovered by centrifugation, and chromatographed on Sephadex G-25 (Amersham Pharmacia Biotech) in 50 mM Tris-HCl pH 8, 10 mM NaCl, 1 mM DTT, 1 mM EDTA. The void volume was pooled and chromatographed on Q-Sepharose-FF in the same buffer, and SHP-2 was eluted with a 0-150 mM gradient of NaCl in the same buffer. Fractions were assayed, pooled, and stored as described for PTP1B.
(§1) The Kic and Kiu values are calculated as described for PTP1B. The assays were performed as described for PTP-1B except for the following changes. All the phosphatases except PP2B use the same 2× assay buffer as PTP1B. PP2B uses a 2× assay buffer which contains 100 mM TRIS-HCl pH 8.6, 40 mM MgCl2, 0.2 mM CaCl2, 6 mM DTT, 0.2 mg/mL BSA. The concentrations of pNPP present in 40 ul were the same for TCPTP, CD45, LAR and PTP1B. For PP2B they were 24 mM, 60 mM, 150 mM, and 375 mM; for cdc25C they were 16 mM, 40 mM, 100 mM, and 250 mM; for SHP-2 they were 6.4 mM, 16 mM, 40 mM, and 100 mM.

CD45 = target: T2, CD45 (Homo sapiens, UniProt P08575); assay: Inhibition constant determination, selectivity panel: CD45 (pNPP hydrolysis); assay type: biochemical; details: competitive Ki; pNPP substrate; read-out: Phosphatase Inhibition Constants (Kic) CD45
T2 construct: purchased Biomol Research Laboratories, Inc. SE-135
T2 sequence (P08575 609-1306 limits assumed): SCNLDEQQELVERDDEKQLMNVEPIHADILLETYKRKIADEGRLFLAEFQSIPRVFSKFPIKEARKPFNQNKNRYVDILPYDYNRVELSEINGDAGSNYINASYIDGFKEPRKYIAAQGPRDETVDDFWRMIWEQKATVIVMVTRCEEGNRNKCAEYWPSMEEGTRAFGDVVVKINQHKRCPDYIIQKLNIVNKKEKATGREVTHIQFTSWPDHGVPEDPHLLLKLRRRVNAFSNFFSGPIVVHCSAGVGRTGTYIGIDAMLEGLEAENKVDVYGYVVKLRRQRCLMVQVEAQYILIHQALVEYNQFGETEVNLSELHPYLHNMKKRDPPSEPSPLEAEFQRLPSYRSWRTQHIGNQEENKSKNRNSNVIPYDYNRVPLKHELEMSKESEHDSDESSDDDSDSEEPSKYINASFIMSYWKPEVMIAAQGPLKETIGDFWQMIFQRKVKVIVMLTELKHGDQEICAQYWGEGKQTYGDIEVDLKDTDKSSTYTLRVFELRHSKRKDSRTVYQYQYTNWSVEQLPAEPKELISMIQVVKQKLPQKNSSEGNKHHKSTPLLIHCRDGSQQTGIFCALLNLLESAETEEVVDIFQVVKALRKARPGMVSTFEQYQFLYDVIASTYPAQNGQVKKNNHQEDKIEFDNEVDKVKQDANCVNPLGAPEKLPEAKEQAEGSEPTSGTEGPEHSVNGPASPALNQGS
Experimental: CD45 was obtained commercially (catalog#SE-135 Biomol Research Laboratories, Inc. 5120 Butler Pike, Plymouth Meeting, Pa.).
as §1

Bovine PP2B = target: T3, Bovine PP2B (Bos taurus, UniProt P48452); assay: Inhibition constant determination, selectivity panel: PP2B (pNPP hydrolysis); assay type: biochemical; details: competitive Ki; pNPP substrate; read-out: Phosphatase Inhibition Constants (Kic) PP2B
T3 construct: purchased Sigma C1907
Experimental: Bovine PP2B was obtained commercially (C1907 Sigma, St. Louis, Mo.).
as §1

[1] = target: T4, CDC25c (fusion with glutathione-S-transferase) (Homo sapiens, UniProt P30307); assay: Inhibition constant determination, selectivity panel: cdc25c (pNPP hydrolysis); assay type: biochemical; details: competitive Ki; pNPP substrate; read-out: Phosphatase Inhibition Constants (Kic) Cdc25c
T4 sequence (P30307 1-473): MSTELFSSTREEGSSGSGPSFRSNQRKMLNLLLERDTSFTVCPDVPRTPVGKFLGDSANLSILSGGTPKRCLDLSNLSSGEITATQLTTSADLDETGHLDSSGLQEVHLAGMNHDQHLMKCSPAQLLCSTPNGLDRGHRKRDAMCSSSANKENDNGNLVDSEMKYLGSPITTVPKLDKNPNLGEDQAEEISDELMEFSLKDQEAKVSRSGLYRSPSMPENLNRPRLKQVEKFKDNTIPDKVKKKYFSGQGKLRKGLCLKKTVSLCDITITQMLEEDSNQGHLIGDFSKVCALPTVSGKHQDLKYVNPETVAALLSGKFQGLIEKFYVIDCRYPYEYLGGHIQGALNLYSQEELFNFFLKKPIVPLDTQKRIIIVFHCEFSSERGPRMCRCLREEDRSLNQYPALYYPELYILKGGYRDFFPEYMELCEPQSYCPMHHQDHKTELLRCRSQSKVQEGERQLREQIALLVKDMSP
Experimental: CDC25c was expressed as a fusion with glutathione-S— transferase (aka GST) in E. coli. Cells were lysed and debris removed as described for SHP-2, except lysis was in PBS (GibcoBRL Life Technologies, Grand Island, N.Y., Stock # 70011-044, diluted 10-fold). The soluble proteins were chromatographed on Glutathione-Sepharose FF (Amersham Pharmacia Biotech) and eluted with 10 mM reduced glutathione in 25 mM TRIS-HCl, pH 7.5, 150 mM NaCl. Fractions were assayed, pooled and stored as decribed for PTP1B.
as §1

[2] = target: T5, Human protein tyrosine phosphatase 1B (PTP1B, amino acid residues 1-321) (Homo sapiens, UniProt P18031); details: read-out: Phosphatase Inhibition Constants (Kic) PTP1B; competitive Ki, +/- S.D.; pNPP substrate
T5 sequence (P18031 1-321): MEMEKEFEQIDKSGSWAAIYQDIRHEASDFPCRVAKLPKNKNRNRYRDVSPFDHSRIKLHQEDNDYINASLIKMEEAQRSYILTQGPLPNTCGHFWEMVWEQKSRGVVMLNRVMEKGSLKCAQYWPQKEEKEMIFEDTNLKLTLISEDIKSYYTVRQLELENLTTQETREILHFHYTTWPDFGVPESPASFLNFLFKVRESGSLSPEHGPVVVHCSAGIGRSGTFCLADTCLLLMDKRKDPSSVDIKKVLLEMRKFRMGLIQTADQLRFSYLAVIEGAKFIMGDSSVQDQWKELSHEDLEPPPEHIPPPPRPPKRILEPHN
Experimental: Human protein tyrosine phosphatase 1B (PTP1B, amino acid residues 1-321) was expressed in E. coli BL21 (DE3). The cell paste was resuspended in 4 cell paste volumes of lysis buffer containing 100 mM MES (pH 6.5), 100 mM NaCl, 1 mM EDTA, 1 mM DTT, 1 mM PMSF, 20 U/mL Benzonase, 0.5 mg/mL lysozyme, and 1 mM MgCl2 and incubated for 35 minutes at room temperature. The cells were lysed at 11,000 psi using a Rannie homogenizer, and the homogenate was clarified in a Beckman GSA rotor at 10,000×g for 30 minutes at 4° C. […] After sample application, the column was washed with 10 column volume (CV) of the same buffer, PTP1B was eluted with a 20 CV linear gradient of 100 mM to 500 mM NaCl in the same buffer. The fractions (28 mL each) were assayed for purity by 10-20% Tris-Glycine SDS-PAGE. Fractions which contained >95% protein tyrosine phosphatase 1 B were combined. These fractions were concentrated to approximately 10 mg/mL by ultrafiltration and chromatographed on a 180 mL (1.6 cm×90 cm) Superdex 75 column in 10 mM TRIS-HCl, pH 7.5, 25 mM NaCl, 0.2 mM EDTA, 3 mM DTT. The fractions (2 mL each) were assayed for purity by 10-20% Tris-Glycine SDS-PAGE. Fractions which contained >99% protein tyrosine phosphatase 1 B were combined. Aliquots were frozen in liquid N2 and stored at −70° C. until used. Once thawed, PTP1B was stored on ice and used within 6 hours.

TCPTP [3] = target: T6, TCPTP (Homo sapiens, UniProt P17706); details: read-out: Phosphatase Inhibition Constants (Kic) TC-PTP; competitive Ki, +/- S.D.; pNPP substrate
T6 sequence (P17706 1-283): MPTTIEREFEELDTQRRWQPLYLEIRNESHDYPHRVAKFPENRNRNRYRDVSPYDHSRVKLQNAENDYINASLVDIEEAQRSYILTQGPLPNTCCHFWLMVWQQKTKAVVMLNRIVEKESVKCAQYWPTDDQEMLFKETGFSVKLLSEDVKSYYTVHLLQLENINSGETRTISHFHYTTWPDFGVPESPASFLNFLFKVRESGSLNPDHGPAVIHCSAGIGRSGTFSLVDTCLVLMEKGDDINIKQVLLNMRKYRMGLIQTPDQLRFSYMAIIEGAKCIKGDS

LAR = target: T7, LAR (Homo sapiens, UniProt P10586); assay: Inhibition constant determination, selectivity panel: LAR (pNPP hydrolysis); assay type: biochemical; details: competitive Ki; pNPP substrate; read-out: Phosphatase Inhibition Constants (Kic) LAR
T7 construct: purchased New England Biolabs P0750L
T7 sequence (P10586 1301-1639 limits assumed): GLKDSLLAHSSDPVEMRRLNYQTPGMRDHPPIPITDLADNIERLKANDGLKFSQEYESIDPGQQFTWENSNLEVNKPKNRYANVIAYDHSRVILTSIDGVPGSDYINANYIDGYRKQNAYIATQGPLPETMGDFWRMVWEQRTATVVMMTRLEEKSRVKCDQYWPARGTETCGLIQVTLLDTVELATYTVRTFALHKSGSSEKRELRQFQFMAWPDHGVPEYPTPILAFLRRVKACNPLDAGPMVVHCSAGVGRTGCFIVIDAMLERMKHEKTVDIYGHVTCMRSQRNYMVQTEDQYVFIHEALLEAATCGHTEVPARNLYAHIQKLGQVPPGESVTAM

TCPTP [4] = target: T6, TCPTP; assay: biochemical

T3 sequence (P63099 2-170 partner limits assumed, other chains not shown): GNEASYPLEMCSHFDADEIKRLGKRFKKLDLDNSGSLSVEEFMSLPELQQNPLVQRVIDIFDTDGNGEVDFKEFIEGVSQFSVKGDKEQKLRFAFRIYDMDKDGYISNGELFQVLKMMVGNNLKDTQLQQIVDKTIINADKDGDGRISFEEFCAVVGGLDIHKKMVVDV

Structure (SMILES)	Ki (SHP-2 (full length))	Ki (CD45)	Ki (Bovine PP2B)	Ki [1]	Ki [2]	Ki (TCPTP [3])	Ki (LAR)	Ki (TCPTP [4])
COC(=O)c1c(O)cccc1OC/C=C/c1ccc(F)c(-c2cc(C(=O)O)no2)c1 [Example 8, 5-(2-fluoro-5-((1E)-3-(3-hydroxy-2-(methoxycarbonyl)phenoxy)prop-1-enyl)phenyl)isoxazole-3-carboxylic Acid]	> 300 µM	> 300 µM	> 300 µM	> 300 µM	6.9 µM	164 µM	–	–
COC(=O)c1c(O)cccc1OC/C=C/c1cccc(-c2cc(C(=O)O)no2)c1 [Example 1, 5-(3-((1E)-3-(3-hydroxy-2-(methoxycarbonyl)phenoxy)prop-1-enyl)phenyl)isoxazole-3-carboxylic Acid]	> 300 µM	> 300 µM	> 300 µM	> 300 µM	–	–	> 300 µM	202 µM
